Source: BigSolDB 2.1

Cc1cnc(NC(=O)C2=C(O)c3ccccc3S(=O)(=O)N2C)s1
solubility (mole fraction) (in DMF, 293.15 K): 0.0117 | solubility (mole fraction) (in DMF, 298.15 K): 0.0128 | solubility (mole fraction) (in DMF, 303.15 K): 0.0139 | solubility (mole fraction) (in DMF, 308.15 K): 0.0153 | solubility (mole fraction) (in DMF, 313.15 K): 0.0163 | solubility (mole fraction) (in formamide, 293.15 K): 0.00069 | solubility (mole fraction) (in formamide, 298.15 K): 0.000749 | solubility (mole fraction) (in formamide, 303.15 K): 0.000802 | solubility (mole fraction) (in formamide, 308.15 K): 0.000872 | solubility (mole fraction) (in formamide, 313.15 K): 0.000927 | solubility (mole fraction) (in n-methylformamide, 293.15 K): 0.00149 | solubility (mole fraction) (in n-methylformamide, 298.15 K): 0.00159 | solubility (mole fraction) (in n-methylformamide, 303.15 K): 0.00169 | solubility (mole fraction) (in n-methylformamide, 308.15 K): 0.00182 | solubility (mole fraction) (in n-methylformamide, 313.15 K): 0.00191
